Experimental data as given in US5047533A, “Acyclic purine phosphonate nucleotide analogs” (SRI International, priority 1990, dated 1991).
In brackets after ≈: the same amount, converted by molar mass. Like-named read-outs stand apart in the source and are kept apart here.

Tests used:
[1] = system: HSV-1TK+ (Strain McCrae of type 1 herpes); assay: Inhibition of viral CPE, HSV-1TK+ in MA-104 cells; assay type: cell-based
Method: (§1) One herpes virus strain employed was Strain McCrae of type 1 herpes (thymidine kinase positive virus) (HSV-1TK^+). This strain was prepared and titered in MA-104 cells and frozen at -90° C. until use. Also used were strain HF (HSV-1TK^-). Strain E194 (HSV-2), NJB strain (MCMV), strain AD169 (HCMV).
(§2) Continuous passaged monkey kidney (MA-104) cells were used for testing of herpes-type virus, with growth medium consisting of Minimum Essential Medium (MEM) supplemented with 0.1% NaHCO3 and […] gentamicin.
(§3) To a 96 well microtiter plate containing an established 24 hour monolayer of cells from which the medium has been decanted was added 0.1 ml of varying (one-half log10) concentrations of test compound, which incubated on the cell 15 minutes, after which 0.1 ml of virus in a concentration of 320 cell culture 50% infectious doses (CCID50)/0.1 ml was added. The plate was covered with plastic wrap and incubated at 37° C. Included with the test were toxicity controls (each concentration of compound+test medium in place of virus), virus controls (virus+test medium in place of compound) and cell controls (test medium in place of compound and virus). The cells were examined microscopically after 72 hours for evidence of cytotoxicity and for viral cytopathic effect (CPE). Vidarabine was run on the same plate in parallel. […] were added to the medium at a concentration of 2000 μg/ml for use as a positive control.
Antiviral activity was determined by observation of inhibition of viral CPE. This activity was expressed by ED50, defined as that dose range of compound causing 50% CPE inhibition.
A Virus Rating (VR) was also determined. VR is a numerical expression of antiviral activity, weighted to take into account any cytotoxicity observed, as discussed by Sidewell et al, Appl Microbiol (1971) 22:797. Generally, a VR of 0.1-0.4 indicates slight antiviral effect, 0.5-0.9 indicates moderate antiviral effect, and ≥1.0 indicates strong antiviral effect.

[2] = system: human cytomegalovirus (strain AD169); assay: Plaque reduction, human cytomegalovirus; assay type: cell-based
Method: as §1
^a 50% effective dose, determined from plot of data.
The data on acyclovir were gathered from tests run in MRC-5 cells grown under agarose overlay, with plaques read 7 days after virus exposure.

HIV = assay: Antiviral activity versus HIV in lymphoblastoid cells; assay type: cell-based; conditions: Human immunodeficiency virus 1, Lymphoblastoid cell, read-out: ED50 against HIV
Method: The compounds of the invention were evaluated in vitro as antiviral agents against herpes virus and against RNA retrovirus. Various herpes strains were used. An infected B lymphoblastoid cell line was used as HIV substrate to test antiviral activity with respect to RNA retrovirus.
To test antiviral activity versus HIV, the following procedure was used: Infectious HIV was assayed in cell culture as described originally by Barre-Sinoussi et al for isolation of LAV, except that persistently infected lymphoblastoid cells were used instead of mononuclear cells from anti-LAV negative donors. HIV obtained from cell culture was stored in liquid nitrogen in aliquots of RPMI 1640 culture medium with 20% of total calf serum and 20% glycerol and containing 1,000 TCID-50 HIV. The lymphoblastoid cells (10^6) were incubated with 1,000 TCID-50 of HIV obtained from cell cultures, and cells were then cultured in RPMI-1640 medium. Culture medium was changed every 3 days for 3 weeks and the medium for each 3-day period from Day 6 through Day 21 was assayed for viral reverse transcriptase activity by concentrating (pelleting) virus by ultracentrifugation in the 100 place Spinco 25 rotor and assaying pellets for reverse transcriptase (RT) using a ^32 P-dTTP in the presence of dimer-template poly rA-oligo dT. […]

MA-104 cells = assay: Cytotoxicity controls (maximum tolerated dose) in MA-104 cells; assay type: cell-based, monkey; conditions: Table 3 Test 2
Method: as §2, §3
*Maximum tolerated dose, μg/ml.

[3] = system: reverse transcriptase (RT) from Moloney murine leukemia virus (MMLV) or avian myeloblastosis virus (AMV); assay: Reverse transcriptase assay; assay type: biochemical; conditions: 1 mM
Method: For the reverse transcriptase assay, cloned reverse transcriptase (RT) (Bethesda Research Laboratories) from Moloney murine leukemia virus (MMLV) or avian myeloblastosis virus (AMV) (Seikagaku or Boehringer Mannheim) was used to direct DNA synthesis from a polyribonucleotide template and a oligodeoxynucleotide primer under reaction conditions (Houts, G. E., et al, J Virol (1979) 29:517.)
Reaction mixtures (100 μl) for the assay of MMLV RT consisted of 50 mM Tris-hydrochloride, pH 8.0, 6 mM MgCl2, 40 mM KCl, 100 μg bovine serum albumin per ml, 1 mM dithiothreitol, 0.1 mM polyadenylic acid (Pharmacia, Inc.), 0.1 mM oligo(dT)12-18 (Pharmacia, Inc.), 0.4 mM deoxythymidine triphosphate (dTTP), and 0.1 mM tritiated (93.5 Cl/mmol) dTTP (New England Nuclear). The compounds assayed were added in various concentrations and dilutions at a volume of 10 μl. Results were confirmed by duplicate assays. Dilutions were made using 10% aqueous DMSO. The total activity was measured by spotting on dry Whatman 3 mm filter disks and radioactivity was determined by liquid scintillation techniques. The assay time course was begun by adding 10 units of RT from MMLV or AMV and incubating the reaction at 37° C. […] Disks were dried under a heat lamp and the acid-insoluble product radioactivity was determined by liquid scintillation counting. […]

Q: `CCOP(=O)(O)CCCOCn1cnc2c(=O)[nH]c(N)nc21` [Compound 2, 9(3'-ethylphosphono-1'-propyloxymethyl)guanine] was tested. Which “activity against HSV-1TK+ relative to vidarabine” value [1] did it give?
A: Its value is “comparable to that of vidarabine”.

Q: And the EC50 ([1]; MA104, 72 h, read-out: ED50)?
A: The EC50 was less than 1 µg/mL.

Q: What about the inhibition at 1000 µg/mL ([1]; MA104, read-out: CPE Inhib., Table 3 Test 1, 1000 μg/ml) of the same compound?
A: The inhibition at 1000 µg/mL was 100%.

Q: What about the “VR (Virus Rating)” value ([1]; Table 3 Test 1, HSV-1TK+) of the same compound?
A: Its value is greater than 2.0.

Q: What about the ED50 ([1]; Table 3 Test 2, HSV-1TK+) of the same compound?
A: The ED50 was less than 1.0 µg/mL.

Q: And the “VR (Virus Rating)” value ([1]; Table 3 Test 2, HSV-1TK+)?
A: The value was greater than 1.4.

Q: And the “No. Plaques” value ([2]; Experiment No. 1, 32 μg/ml)?
A: Its value is 5.

Q: What about the “No. Plaques” value ([2]; Experiment No. 1, 100 μg/ml) of the same compound?
A: Its value is 0.

Q: What about the “No. Plaques” value ([2]; Experiment No. 2, 10 μg/ml) of the same compound?
A: The value was 17.

Q: And the “No. Plaques” value ([2]; Experiment No. 2, 32 μg/ml)?
A: Its value is 6.

Q: And the “No. Plaques” value ([2]; Experiment No. 2, 100 μg/ml)?
A: Its value is 1.

Q: And the inhibition at 32 µg/mL ([2]; Human betaherpesvirus 5, AD169, read-out: % Reduct., Experiment No. 1, 32 μg/ml)?
A: Its inhibition at 32 µg/mL is 71%.

Q: And the inhibition at 100 µg/mL ([2]; Human betaherpesvirus 5, AD169, read-out: % Reduct., Experiment No. 1, 100 μg/ml)?
A: The inhibition at 100 µg/mL was 100%.

Q: And the inhibition at 10 µg/mL ([2]; Human betaherpesvirus 5, AD169, read-out: % Reduct., Experiment No. 2, 10 μg/ml)?
A: The inhibition at 10 µg/mL was 23%.

Q: And the inhibition at 32 µg/mL ([2]; Human betaherpesvirus 5, AD169, read-out: % Reduct., Experiment No. 2, 32 μg/ml)?
A: The inhibition at 32 µg/mL was 73%.

Q: And the inhibition at 100 µg/mL ([2]; Human betaherpesvirus 5, AD169, read-out: % Reduct., Experiment No. 2, 100 μg/ml)?
A: The inhibition at 100 µg/mL was 96%.

Q: And the EC50 ([2]; Human betaherpesvirus 5, AD169, read-out: Approx. ED50, Experiment No. 2, determined from plot of data)?
A: Its EC50 is 10 to 32 µg/mL (≈ 30.2 to 96.6 µM).

Q: And the EC50 ([2]; Human betaherpesvirus 5, AD169, read-out: ED50, human CMV)?
A: The EC50 was 10 µg/mL (≈ 30.2 µM).

Q: And the “human CMV-inhibitory effect relative to acyclovir” value ([2]; overall, Table 5)?
A: The value was “approximately the same”.

Q: And the EC50 (HIV)?
A: Its EC50 is 30 µg/mL (≈ 90.6 µM).

Q: And the “MTD (Maximum tolerated dose)” value (MA-104 cells)?
A: The value was greater than 1000 µg/mL.

Q: What about the “inhibition of reverse transcriptase” value [3] of the same compound?
A: The value was 100%.
